US11649222B2, “Compounds” (UNIVERSITETET I OSLO, priority 2016, dated 2023)
Where a name gives a salt, the structure may show the parent alone. Read-outs that look alike come from different tables or passages of the source. Marks after values point to notes of the source that are not given here.

Key:
Assay type in all cases: cell-based
[1] = tested on: resistant gram-negative MBL-based bacteria; assay: MICx: adjuvant concentration giving carbapenem MIC ≤ 2 mg/L
Experimental: (§1) • Plate bacterial strain(s) on appropriate media: • Gram-negative bacteria with ESBLs or carbapenemases: green agar plates with 100 mg/L ampicillin • Gram-negative bacteria without β-lactamases: green agar plates • Gram-positive bacteria (Staphylococci and Enterococci): blood agar plates • Incubate o.n. at 37° C. […] (Should be used within 15 min of preparation). • Dilute the 0.5 McFarland suspension 1:100 into MH broth. […] Plate 10 μl of the dilution on MH agar plates (×2). Incubate o.n. at 37° C., count the colonies and calculate the final CFU/ml inoculum in the plate by multiplying the average number of colonies with 10000 and divide by 2. The final inoculum should be between 3-7×10^5 CFU/ml. • Add 50 μl of the prepared bacterial suspension to each well in the microtiter plate except negative growth control. Preparation of Compounds/Antibiotics • Calculate the desired concentration-range and volume of the compounds/antibiotics in the assay. […] Dilute the stock solution in MH broth. Make subsequent 2-fold dilutions in MH broth of the desired concentrations if a concentration range is to be tested (remember the extra dilution factor in the assay plate). Always include extra volume for pipetting. Take into consideration stock solutions that are made in buffers that have an effect on bacterial growth (e.g. DMSO).

[2] = tested on: human hepG2 cells; assay: In vitro toxicity in human hepG2 cells (AlamarBlue viability)
Experimental: For viability assays, cells were seeded in white 96-well Nunclon plates at a density of 20,000 cells/well and left overnight to adhere before experiments were conducted. Zn chelators dissolved in DMSO were added to white 96-well plates containing 20000 HepG2 cells/well at concentrations ranging from 1 to 1×10^−6 mM (max DMSO concentration never exceeded 1%) and incubated for 24 hours at 37° C. After 24 hours, AlamarBlue® cell viability reagent (Thermo Fisher, Carlsbad, USA) was added (10% final concentration) and incubated for 4 hours at 37° C.

[3] = tested on: K. pneumoniae K66-45 (NDM-1); assay: Microbroth dilution MIC of carbapenem with/without inhibitor; details: K. pneumoniae K66-45 NDM-1; for Meropenem activity in presence of inhibitor: inhibitor 63 mg/L
Experimental: as §1

[4] = tested on: P. aeruginosa K34-7 (VIM-2); assay: as above; details: for Meropenem activity in presence of inhibitor: inhibitor 63 mg/L
Experimental: as §1

[5] = tested on: K. pneumoniae 50732159 (No MBL); assay: Microbroth dilution MIC of meropenem with/without inhibitor; details: inhibitor 25 mg/L
Experimental: as §1

[6] = tested on: P. aeruginosa 50808021 (No MBL); assay: as above; details: inhibitor 25 mg/L
Experimental: as §1

[7] = Homo sapiens, HepG2, read-out: IC50h
[8] = lowest concentration of compound X that results in a MIC value of ≤ 2 mg/L for carbapenem antibiotics
[9] = human hepG2 cells, 24 hours, AlamarBlue, 8 replicates, read-out: IC50
[10] = human hepG2 cells, read-out: IC50h
[11] = Homo sapiens, HepG2, estimated values (footnote c), read-out: IC50h

Structure (SMILES) | MICx [1, 8] | IC50 [2, 9] | IC50 [2, 10] | other results
O=C(O)CN1CCN(CC(=O)O)CCN([C@H](CO)[C@H](O)CO)CCN(CC(=O)O)CC1 [Butrol, reference compound] | – | – | – | MICx ([1]; estimated values (footnote c)): 15^c μM; IC50 ([2]; estimated values (footnote c), read-out: IC50h): 60 µM
CCOCCOCCOCCN(CCN(Cc1ccccn1)Cc1ccccn1)Cc1ccccn1 [Example 9, N1-(2-(2-(2-ethoxyethoxy)ethoxy)ethyl)-N1,N2,N2-tris(pyridin-2-ylmethyl)ethane-1,2-diamine] | – | – | – | Meropenem activity in presence of inhibitor [3]: ≤0.5 mg/L; Meropenem activity in presence of inhibitor [4]: ≤0.5 mg/L
COC(=O)c1ccc(CN(Cc2ccccn2)Cc2ccccn2)nc1 [Example 12, methyl 6-((bis(pyridin-2-ylmethyl)amino)methyl)nicotinate] | – | – | – | MICx [1]: 31 µM; IC50 ([2]; Homo sapiens, HepG2, 24 h): 16.5 µM; IC50 [2, 7]: 16.4 µM
OCc1ccc(CN(Cc2ccccn2)Cc2ccccn2)nc1 [Example 14, (6-((bis(pyridin-2-ylmethyl)amino)methyl)pyridin-3-yl) methanol] | 31 µM | 12.4 µM | 12.4 µM | –
CC(=O)OC[C@H]1OC(OC(C)=O)[C@H](NC(=O)Cc2ccc(NC(=O)CN(CCN(Cc3ccccn3)Cc3ccccn3)Cc3ccccn3)cc2)[C@@H](OC(C)=O)[C@@H]1OC(C)=O (stereo partly drawn) [Example 22a, (3R,4R,5S,6R)-6-(acetoxymethyl)-3-(2-(4-(2-((2-(bis(pyridin-2-ylmethyl)amino)ethyl)(pyridin-2-ylmethyl)amino)acetamido)phenyl)acetamido) tetrahydro-2H-pyran-2,4,5-triyltriacetate] | – | – | – | Meropenem activity in presence of inhibitor [3]: 0.25 mg/L; Meropenem activity in presence of inhibitor [4]: 1 mg/L
O=C(CN(CCN(Cc1ccccn1)Cc1ccccn1)Cc1ccccn1)Nc1ccc(CC(=O)NC(CO)(CO)CO)cc1 [Example 24, 2-((2-(bis(pyridin-2-ylmethyl)amino)ethyl)(pyridin-2-ylmethyl)amino)-N-(4-(2-(1,3-dihydroxy-2-(hydroxymethyl)propan-2-ylamino)-2-oxoethyl)phenyl)acetamide] | 31 µM | – | 60 µM | –
O=C(CN(CCN(Cc1ccccn1)Cc1ccccn1)Cc1ccccn1)Nc1ccc(CCNC(=O)c2cnccn2)cc1 [Example 27, N-(4-(2-((2-(bis(pyridin-2-ylmethyl)amino)ethyl)(pyridin-2-ylmethyl)amino)acetamido)phenethyl)pyrazine-2-carboxamide] | – | – | – | Meropenem activity in presence of inhibitor [3]: 0.125 mg/L; Meropenem activity in presence of inhibitor [4]: 1 mg/L
OC[C@H]1OC(O)[C@H](n2cc(CN(Cc3ccccn3)Cc3ccccn3)nn2)[C@@H](O)[C@@H]1O (stereo partly drawn) [Example 84, (3R,4R,5S,6R)-3-(4-((bis(pyridin-2-ylmethyl)amino)methyl)-1H-1,2,3-triazol-1-yl)-6-(hydroxymethyl)tetrahydro-2H-pyran-2,4,5-triol] | 125 µM | > 1000 µM | 116 µM | –
OC1O[C@H](Cn2cc(CN(CCN(Cc3ccccn3)Cc3ccccn3)Cc3ccccn3)nn2)[C@H](O)[C@H](O)[C@H]1O (stereo partly shown) [Example 91] | 31 µM | 165 µM | 165 µM | –
CN(C[C@H](O)[C@@H](O)[C@H](O)[C@H](O)CO)C(=O)Cc1ccc(-n2cc(CN(Cc3ccccn3)Cc3ccccn3)nn2)cc1 [Example 96, 2-(4-(4-((bis(pyridin-2-ylmethyl)amino)methyl)-1H-1,2,3-triazol-1-yl)phenyl)-N-methyl-N-((2S,3R,4R,5R)-2,3,4,5,6-pentahydroxyhexyl)acetamide] | 125 µM | > 1000 µM | ≥ 118 µM | –
O=C(NC[C@@H](O)CO)c1ccc(CN(Cc2ccccn2)Cc2ccccn2)nc1 [Example 97, (R)-6-((bis(pyridin-2-ylmethyl)amino)methyl)-N-(2,3-dihydroxypropyl)nicotinamide] | – | 131 µM | – | –
O=C(Cc1ccc(-n2cc(CN(Cc3ccccn3)Cc3ccccn3)nn2)cc1)NC(CO)(CO)CO [Example 98, 2-(4-(4-((bis(pyridin-2-ylmethyl)amino)methyl)-1H-1,2,3-triazol-1-yl)phenyl)-N-(1,3-dihydroxy-2-(hydroxymethyl)propan-2-yl)acetamide] | 125 µM | 259 µM | 259 µM | –
CN(C[C@H](O)[C@@H](O)[C@H](O)[C@H](O)CO)C(=O)Cc1ccc(NC(=O)c2ccc(CN(Cc3ccccn3)Cc3ccccn3)nc2)cc1 [Example 99, 6-((bis(pyridin-2-ylmethyl)amino)methyl)-N-(4-(2-(methyl((2S,3R,4R,5R)-2,3,4,5,6-pentahydroxyhexyl)amino)-2-oxoethyl)phenyl)nicotinamide] | 31 µM | 217 µM | 217 µM | Meropenem activity in presence of inhibitor [5]: 32 mg/L; Meropenem activity in presence of inhibitor [6]: >64 mg/L
O=C(NCCc1ccc(-n2cc(CN(Cc3ccccn3)Cc3ccccn3)nn2)cc1)[C@H]1O[C@H](O)[C@H](O)[C@@H](O)[C@H]1O [Example 101, (2S,3R,4S,5R,6S)—N-(4-(4-((Bis(pyridin-2-ylmethyl)amino)methyl)-1H-1,2,3-triazol-1-yl)phenethyl)-3,4,5,6-tetrahydroxytetrahydro-2H-pyran-2-carboxamide] | – | ~220 µM | – | –
O=C(NC(CO)(CO)CO)c1ccc(CN(Cc2ccccn2)Cc2ccccn2)nc1 [Example 103, 6-((bis(pyridin-2-ylmethyl)amino)methyl)-N-(1,3-dihydroxy-2-(hydroxymethyl)propan-2-yl)nicotinamide] | 31 µM | 67.6 µM | 67.6 µM | –
O=C(Cc1ccc(-n2cc(CN(Cc3ccccn3)Cc3ccccn3)nn2)cc1)NC[C@H](O)CO [Example 104, (S)-2-(4-(4-((bis(pyridin-2-ylmethyl)amino)methyl)-1H-1,2,3-triazol-1-yl)phenyl)-N-(2,3-dihydroxypropyl)acetamide] | – | 224 µM | – | –
O=C(c1ccc(CN(Cc2ccccn2)Cc2ccccn2)nc1)N1CCNCC1 [Example 105, (6-((bis(pyridin-2-ylmethyl)amino)methyl)pyridin-3-yl)(piperazin-1-yl)methanone] | 31 µM | ~210 µM | – | IC50 [2, 11]: 100 µM
O=C(CNCCc1ccc(NC(=O)CN(CCN(Cc2ccccn2)Cc2ccccn2)Cc2ccccn2)cc1)NCC(O)CO (stereo not shown) [Example 108] | – | > 1000 µM | – | –
O=C(O)CNC(=O)CNC(=O)c1ccc(CN(Cc2ccccn2)Cc2ccccn2)nc1 [Example 109] | – | 128 µM | – | –
NCc1ccc(CN(Cc2ccccn2)Cc2ccccn2)nc1 [Example 147, 1-(5-(aminomethyl)pyridin-2-yl)-N,N-bis(pyridin-2-ylmethyl) methanamine hydrochloride] | – | – | – | IC50 ([2]; Homo sapiens, HepG2, 24 h): ~10 µM
O=C(O)C[C@@H]1CC[C@H](NC(=O)c2ccc(CN(Cc3ccccn3)Cc3ccccn3)nc2)B(O)O1 [Example 163, 2-((3R,6S)-3-(6-((Bis(pyridin-2-ylmethyl)amino)methyl)nicotinamido)-2-hydroxy-1,2-oxaborinan-6-yl)acetic acid] | – | – | – | IC50 [2, 11]: 100 µM
COC(=O)c1ccc(CN(Cc2ccccc2)Cc2ccccn2)nc1 [Example 186, methyl 6-((benzyl(pyridin-2-ylmethyl)amino)methyl)nicotinate] | – | ~215 µM | – | –
c1ccc(CN(Cc2ccccn2)Cc2ccccn2)nc1 [TPA, N,N,N-tris(2-pyridylmethyl) amine, reference compound] | – | – | – | EC50 ([2]; Homo sapiens, HepG2): 10 µM
CN[C@H](CC(C)C)C(=O)N[C@H]1C(=O)N[C@@H](CC(N)=O)C(=O)N[C@H]2C(=O)N[C@H]3C(=O)N[C@H](C(=O)N[C@H](C(=O)O)c4cc(O)cc(O)c4-c4cc3ccc4O)[C@H](O)c3ccc(c(Cl)c3)Oc3cc2cc(c3O[C@@H]2O[C@H](CO)[C@@H](O)[C@H](O)[C@H]2O[C@H]2C[C@](C)(N)[C@H](O)[C@H](C)O2)Oc2ccc(cc2Cl)[C@H]1O [Vancomycin, reference compound] | – | – | – | MICx [1]: > 1000^d μM; IC50 [2, 7]: 20 µM
C[C@@H](O)[C@H]1C(=O)N2C(C(=O)O)=C(S[C@@H]3CN[C@H](CNS(N)(=O)=O)C3)[C@H](C)[C@H]12 [doripenem, reference compound] | – | – | – | MIC ([3]; Klebsiella pneumoniae, read-out: MIC of doripenem alone): > 64 µg/mL; MIC ([4]; Pseudomonas aeruginosa, read-out: MIC of doripenem alone): 64 µg/mL
